The source of these data is patent US7855292B2, “Sulfonamide compounds” (Janssen Pharmaceutica NV, priority 2004, dated 2010).

The target in this experiment is T1, CCK2 receptor (Homo sapiens, UniProt P32239).
T1 construct: analyzed for ZFP expression as well as CCK2R induction upon addition of doxycycline to the culture medium; endogenous in cells
T1 sequence (P32239 1-447): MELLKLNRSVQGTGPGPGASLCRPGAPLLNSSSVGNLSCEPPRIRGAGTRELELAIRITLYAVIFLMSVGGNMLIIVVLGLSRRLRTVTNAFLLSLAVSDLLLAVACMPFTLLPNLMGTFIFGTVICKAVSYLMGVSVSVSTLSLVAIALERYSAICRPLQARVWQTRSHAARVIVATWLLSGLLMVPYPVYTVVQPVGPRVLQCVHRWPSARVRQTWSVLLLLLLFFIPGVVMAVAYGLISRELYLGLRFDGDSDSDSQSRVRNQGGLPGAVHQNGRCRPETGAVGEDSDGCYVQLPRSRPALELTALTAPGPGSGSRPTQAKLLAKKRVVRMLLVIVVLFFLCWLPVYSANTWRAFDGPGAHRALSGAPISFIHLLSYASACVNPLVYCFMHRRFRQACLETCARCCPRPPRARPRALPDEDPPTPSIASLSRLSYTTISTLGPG
Put plainly: CCK2 binding assay ([125I]-BH-CCK-8S displacement, HEKZFP membranes). The note with it: membranes of doxycycline-induced HEKZFP cells; 20 pM [125I]-BH-CCK-8S; 60 min at 21±3° C.; read-out: CCK2 pKi (converted).

In the case of `O=C(N[C@@H](Cc1ccc(Cl)c(Cl)c1)C(=O)O)c1ccc(I)cc1NS(=O)(=O)c1cccc2nsnc12` [Example 2, (S)-2-[2-(Benzo[1,2,5]thiadiazole-4-sulfonylamino)-4-iodo-benzoylamino]-3-(3,4-dichloro-phenyl)-propionic acid], the Ki was 31.6 nM.
